Patent US11161864B2, “Sting agonists” (Venenum Biodesign, LLC, priority 2018, dated 2021)
Read-outs that look alike come from different tables or passages of the source.

Tests used:
[1] = target: wild-type (WT) truncated human STING protein, amino acids 155-379 (Homo sapiens (Human), UniProt Q86WV6, H232R); experiment: Human WT STING [3H] 2′,3′-cGAMP scintillation proximity competition binding assay
Description: (§1) A human STING [^3H] 2′,3′-cGAMP scintillation proximity competition binding assay was utilized to detect binding of compounds to STING protein. […] The protein encoding plasmid contained a HIS tag, followed by an Avi tag and then a SUMO tag, which were followed by the STING coding sequence within the pET-28a (+) vector. The plasmid was transfected into a BL21 (DE3)/BirA E. coli co-expression strain. Protein was purified from the bacterial lysate using a cobalt-affinity column. The purified protein was dialyzed against PBS and then 20% glycerol was added prior to storage at −80° C.
(§2) 2′,3′-cGAMP in assay buffer (50 mM Tris pH 7.5, 100 mM NaCl, 0.1% Fatty Acid Free BSA). Test compounds (2.5 μL) were added to the plate first followed by a 25 μL mixture of STING protein, streptavidin PVT SPA beads (Perkin Elmer) and 10 μL [^3H] 2′,3′-cGAMP. Plates were incubated at room temperature for 18 hrs and read on a Wallac MicroBeta TriLux (Perkin Elmer).

[2] = target: AQ variant of truncated human STING protein, amino acids 155-379 (Homo sapiens (Human), UniProt Q86WV6, G230A/H232R/R293Q); experiment: Human AQ STING [3H] 2′,3′-cGAMP scintillation proximity competition binding assay
Sequence of AQ variant of truncated human STING protein, amino acids 155-379 (Q86WV6 155-379 G230A/H232R/R293Q): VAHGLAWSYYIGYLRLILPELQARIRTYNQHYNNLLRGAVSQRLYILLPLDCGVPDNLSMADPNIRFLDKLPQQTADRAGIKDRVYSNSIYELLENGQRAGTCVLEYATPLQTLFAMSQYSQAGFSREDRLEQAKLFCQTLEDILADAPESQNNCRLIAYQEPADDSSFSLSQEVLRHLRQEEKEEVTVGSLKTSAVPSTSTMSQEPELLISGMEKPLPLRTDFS
Description: as §1, §2

[3] = target: murine STING protein (amino acids 154-378) (Mus musculus (Mouse), UniProt Q3TBT3); experiment: Murine STING [3H] 2′,3′-cGAMP scintillation proximity competition binding assay
Sequence of murine STING protein (amino acids 154-378) (Q3TBT3 154-378): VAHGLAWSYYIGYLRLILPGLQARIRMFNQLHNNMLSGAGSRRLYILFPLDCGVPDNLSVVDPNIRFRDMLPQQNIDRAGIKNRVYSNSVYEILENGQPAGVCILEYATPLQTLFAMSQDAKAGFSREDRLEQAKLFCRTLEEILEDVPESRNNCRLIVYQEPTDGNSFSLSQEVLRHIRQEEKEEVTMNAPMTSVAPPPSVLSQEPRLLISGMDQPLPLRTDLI

[4] = read-out: Human WT Binding IC50
[5] = read-out: Human AQ Binding IC50

Sequence of wild-type (WT) truncated human STING protein, amino acids 155-379 (Q86WV6 155-379 H232R): as the sequence (Q86WV6 155-379 G230A/H232R/R293Q) above, with A76G, Q139R counted along it

Nc1nc2c(ncn2[C@@H]2O[C@@H]3COP(=O)(O)O[C@@H]4[C@H](O)[C@@H](COP(=O)(O)O[C@@H]2[C@@H]3O)O[C@H]4n2cnc3c(N)ncnc32)c(=O)[nH]1 [2′,2′-cGAMP, reference compound]
IC50 ([1]; reference compound, read-out: IC50 using the WT STING protein): 562 nM | IC50 ([2]; reference compound, unit printed as 'M' (sic), read-out: IC50 using the AQ STING protein): 98 nM | IC50 ([3]; reference compound, read-out: IC50, murine STING binding): 55 nM

CO[C@H]1[C@H]2OP(=O)(S)OCc3nc4cncnc4n3CCOP(=O)(S)OC[C@H]1O[C@H]2n1cnc2c(=O)[nH]c(N)nc21 (single isomer, unassigned) [Example 27D]
IC50 [1, 4]: 1000 to 9990 nM | IC50 [2, 5]: < 1000 nM | IC50 ([3]; read-out: Murine Binding IC50): < 1000 nM

Nc1nc2c(ncn2[C@@H]2O[C@@H]3COP(=O)(O)OCCn4c(nc5cncnc54)COP(=O)(O)O[C@@H]2[C@@H]3F)c(=O)[nH]1 [Example 4, (1S,21R,23R,24R)-23-(2-Amino-6-oxo-6,9-dihydro-1H-purin-9-yl)-24-fluoro-3,18-dihydroxy-2,4,17,19,22-pentaoxa-7,10,12,14-tetraaza-3lambda5,18lambda5-diphosphatetracyclo[19.2.1.06,14.08,13]tetracosa-6,8(13),9,11-tetraene-3,18-dione]
IC50 [1, 4]: 10000 to 100000 nM | IC50 [2, 5]: 1000 to 9990 nM | IC50 ([3]; read-out: Murine Binding IC50): < 1000 nM

Nc1nc2c(ncn2[C@@H]2O[C@@H]3COP(=O)(S)OCCn4c(nc5c(N)ncnc54)COP(=O)(S)O[C@@H]2[C@@H]3F)c(=O)[nH]1 (single isomer, unassigned) [Example 7C]
IC50 [1, 4]: < 1000 nM | IC50 [2, 5]: < 1000 nM | IC50 ([3]; read-out: Murine Binding IC50): < 1000 nM

Nc1nc2c(ncn2[C@@H]2O[C@@H]3COP(=O)(S)OCCn4c(nc5c(N)ncnc54)COP(=O)(S)O[C@@H]2[C@@H]3F)c(=O)[nH]1 (single isomer, unassigned) [Example 7B]
IC50 [1, 4]: 10000 to 100000 nM | IC50 [2, 5]: 1000 to 9990 nM | IC50 ([3]; read-out: Murine Binding IC50): < 1000 nM

Nc1nc2c(ncn2[C@@H]2O[C@@H]3COP(=O)(S)OCCn4c(nc5c(N)ncnc54)COP(=O)(S)O[C@@H]2[C@@H]3F)c(=O)[nH]1 (single isomer, unassigned) [Example 7A]
IC50 [1, 4]: 10000 to 100000 nM | IC50 [2, 5]: 1000 to 9990 nM | IC50 ([3]; read-out: Murine Binding IC50): < 1000 nM

Nc1nc2c(ncn2[C@@H]2O[C@@H]3COP(=O)(S)OCCn4c(nc5c(N)ncnc54)COP(=O)(S)O[C@@H]2[C@@H]3F)c(=O)[nH]1 (single isomer, unassigned) [Example 7D]
IC50 [1, 4]: 1000 to 9990 nM | IC50 [2, 5]: < 1000 nM | IC50 ([3]; read-out: Murine Binding IC50): < 1000 nM

COCc1ncc2nc3n(c2n1)CCOP(=O)(S)OC[C@H]1O[C@@H](n2cnc4c(=O)[nH]c(N)nc42)[C@H](OP(=O)(S)OC3)[C@@H]1F (stereo partly drawn) [Example 40C, (1S,21R,23R,24R)-23-(2-Amino-6-oxo-6,9-dihydro-H-purin-9-yl)-24-fluoro-11-(methoxymethyl)-3,18-disulfanyl-2,4,17,19,22-pentaoxa-7,10,12,14-tetraaza-3lambda5,18lambda5-diphosphatetracyclo[19.2.1.06,14.08,13]tetracosa-6,8,10,12-tetraene-3,18-dione]
IC50 [1, 4]: 10000 to 100000 nM | IC50 [2, 5]: 1000 to 9990 nM | IC50 ([3]; read-out: Murine Binding IC50): < 1000 nM

CO[C@H]1[C@H]2OP(=O)(S)OCc3nc4cncnc4n3CCOP(=O)(S)OC[C@H]1O[C@H]2n1cnc2c(=O)[nH]c(N)nc21 (single isomer, unassigned) [Example 27C]
IC50 [1, 4]: < 1000 nM | IC50 [2, 5]: < 1000 nM | IC50 ([3]; read-out: Murine Binding IC50): < 1000 nM

Nc1ncnc2c1ncn2[C@@H]1O[C@@H]2COP(=O)(S)OCCn3c(nc4cncnc43)COP(=O)(S)O[C@@H]1[C@@H]2O (stereo partly drawn) [Example 8, (1R,21R,23R,24R)-23-(6-Amino-9H-purin-9-yl)-24-hydroxy-3,18-disulfanyl-2,4,17,19,22-pentaoxa-7,10,12,14-tetraaza-3lambda5,18lambda5-diphosphatetracyclo[19.2.1.06,14.08,13]tetracosa-6,8(13),9,11-tetraene-3,18-dione]
IC50 [1, 4]: 10000 to 100000 nM | IC50 [2, 5]: 10000 to 100000 nM | IC50 ([3]; read-out: Murine Binding IC50): 1000 to 9990 nM

CO[C@H]1[C@H]2OP(=O)(S)OCc3nc4cncnc4n3CCOP(=O)(S)OC[C@H]1O[C@H]2n1cnc2c(=O)[nH]c(N)nc21 (single isomer, unassigned) [Example 27B]
IC50 [1, 4]: 10000 to 100000 nM | IC50 [2, 5]: 1000 to 9990 nM | IC50 ([3]; read-out: Murine Binding IC50): < 1000 nM
